Reference: US20090123474A1, “COMBINATION OF ANGIOPOIETIN-2 ANTAGONIST AND OF VEGF-A, KDR AND/OR FLTL ANTAGONIST FOR TREATING CANCER” (ASTRAZENECA AB, priority 2005, published 2009)

How the values were obtained:
Assay type in all cases: in vivo
[1] = test system: A431 human tumour xenografts; experiment: A431 xenograft efficacy study (Study A); conditions: 3.19.3 10 mg/kg 2×wk i.p., VTKI 3 mg/kg/day p.o.
Protocol: (§1) The anti-tumor activity of monoclonal antibody 3.19.3 in combination with the VTKI 4-(4-fluoro-2-methylindol-5-yloxy)-6-methoxy-7-(3-piperidinopropoxy)quinazoline was evaluated in a xenograft model of human skin epidermoid carcinoma (Study A) and in a model of colorectal cancer (Study B) by using the A431 and Colo205 cell lines respectively.
(§2) A431 and Colo205 cells were cultured in flasks as routine until the cells reached sub-confluence. Immunodeficient 6-8 week old female mice (Ncr/nu/nu) were used. The cells were harvested and suspended in Matrigel. A cell suspension containing 1 to 5×10^6 cells was injected subcutaneously into the flank of the mice. The mice were randomized into different groups, each containing 10-15 mice. When the tumour volume reached 200 mm^3, the mice were randomized in each groups and the treatments were initiated. mAb 3.19.3 10 mg/kg in saline was injected intraperitoneally, twice per week for 2 weeks. 4-(4-fluoro-2-methylindol-5-yloxy)-6-methoxy-7-(3-piperidinopropoxy)quinazoline was treated peroral daily at doses ranging from 1.5 to 6 mg/kg in water containing 1% Tween80. The dimensions of each tumor were measured twice per week. The volume of the tumor was calculated as: Volume=Length×(Width)^2×0.5 (cm^3).

[2] = test system: human Colo205 colon tumour xenografts; experiment: Colo205 xenograft efficacy study (Study B); conditions: 3.19.3 10 mg/kg 2×wk i.p., VTKI 6 mg/kg/day p.o.
Protocol: as §1, §2

[3] = test system: human HT29 colon tumour xenografts; experiment: HT29 xenograft efficacy study; conditions: AZD2171 1.5 mg/kg/day p.o. d 0-27, 3.19.3 10 mg/kg i.p. day 0, 3, 7, 10, 14, 17, 21 and 24
Protocol: The efficacy of mAb 3.19.3 in combination with AZD2171 was evaluated in human HT29 xenografts. Briefly, 5×10^6 HT29 tumour cells in 0.1 ml of serum free Roswell Park Memorial Institute (RPMI)-1640 medium were injected subcutaneously into the flanks of 60 athymic (nu/nu genotype) mice. When tumours reached a volume of 200 to 400 mm^3 (9-10 days), mice were randomized into groups (8 per group) and treatment started (day 0).
The control group (Group 1) received a daily oral (p.o.) administration of vehicle only for 28 consecutive days (day 0-27). Group 2 treatment consisted of a daily p.o. administration of AZD2171 alone at 1.5 mg/kg/administration for 28 consecutive days (day 0-27). AZD2171 was prepared as a suspension in 1% polysorbate 80 (i.e. a 1% (v/v) solution of polyoxyethylene (20) sorbitan mono-oleate in deionised water). […]
Tumour volumes (mm^3) were assessed at least twice weekly by bilateral Vernier caliper measurement and, taking length to be the longest diameter across the tumor and width the corresponding perpendicular, calculated using the formula (π/6)×(length×width)×√ (length×width). Growth inhibition from the start of treatment was assessed by comparison of the differences in tumor volume between control and treated groups. […] For all mice, the tumours were excised and weights recorded upon termination of the study.

[4] = test system: human LoVo colon tumour xenografts; conditions: 3.19.3 10 mg/kg 2×wk i.p., Zactima 50 mg/kg/day p.o.
Protocol: The anti-tumor activity of monoclonal antibody 3.19.3 was evaluated in the LoVo xenograft model of colorectal cancer. Briefly, LoVo cells were cultured in flasks as routine until the cells reached sub-confluence. Immunodeficient 8 week old male NCr nude mice were used. Cell suspensions containing 3×10^6 cells were injected subcutaneously into the right flank of the mice, and after the tumour volume reached 200 mm^3, the mice were randomized in groups and the treatments were initiated. mAb 3.19.3 10 mg/kg in saline was injected intraperitoneally, twice per week for 2 weeks. Zactima™ was treated peroral daily at doses ranging from 25 to 50 mg/kg in water containing 1% Tween80. The dimensions of each tumor were measured twice per week. The volume of the tumor was calculated as: Volume=Length×(Width)^2×0.5 (cm^3).

**Q.** What does the source list for `COc1cc2c(Oc3ccc4[nH]c(C)cc4c3F)ncnc2cc1OCCCN1CCCCC1` [4-(4-fluoro-2-methylindol-5-yloxy)-6-methoxy-7-(3-piperidinopropoxy)quinazoline, reference compound]?
**A.** % tumor growth inhibition [1]: 69%; % inhibition [2]: 57%

**Q.** For `COc1cc2c(Oc3ccc4[nH]c(C)cc4c3F)ncnc2cc1OCCCN1CCCC1` [AZD2171, reference compound], which “Inhibition of Control Tumour Growth Day 28” value [3] is on record?
**A.** The value was 55%.

**Q.** How did the tumour inhibition [4] turn out when `COc1cc2c(Nc3ccc(Br)cc3F)ncnc2cc1OCC1CCN(C)CC1` [Zactima™, reference compound] was run?
**A.** Its tumour inhibition is 46%.
